Reference: patent US20260098033A1, “NOVEL CRYSTALLINE FORM OF ENAVOGLIFLOZIN, AND PREPARATION METHOD THEREFOR” (DAEWOONG PHARMACEUTICAL CO., LTD., priority 2022, published 2026)

Assays:
[1] = Evaluation of hygroscopicity (weight change in desiccators at set relative humidity); assay type: physicochemical; settings: for Weight change: two days or more, 60 mg
Protocol: The crystalline form A of enavogliflozin in the known Korean Unexamined Patent Application Publication No. 2017-0142904 and the enavogliflozin crystalline form E were taken in amounts of 60 mg each and placed in desiccators at relative humidity of 11%, 33%, 54%, 75%, and 93%, each for two days or more to absorb moisture, and then the weight change was measured.

[2] = Stress stability evaluation for heat (60° C.), HPLC purity; assay type: physicochemical; settings: for Purity: 60° C.
Excerpt: (§1) To confirm the possibility of commercializing the novel crystalline form E of enavogliflozin of the present invention, the crystalline form A of enavogliflozin in Korean Unexamined Patent Application Publication No. 2017-0142904 was used as a control to test stress stability, and analyzed by high performance liquid chromatography (HPLC), and the results are shown in Tables 4 and 5.

[3] = Stress stability evaluation for moisture (93% RH), HPLC purity; assay type: physicochemical; settings: for Purity: 93% RH
Excerpt: as §1

[4] = Pharmacokinetic study in beagle dogs, oral administration; assay type: in vivo, beagle dog; settings: 1 mg/kg
Protocol: Pharmacokinetic profiles of crystalline form A of enavogliflozin and the novel crystalline form E were to be confirmed in beagle dogs. The crystalline form A of enavogliflozin was set as a control, the novel crystalline form E was set as a comparison group, and each of the crystalline form A of enavogliflozin and the novel crystalline form E was orally administered to a male beagle dog at a dose of 1 mg/kg, and blood samples were collected before administration (0 hours), and at 0.083, 0.25, 0.5, 0.75, 1, 1.5, 2, 4, 6, 8, 12, and 24 hours (a total of 13 times). Blood drug concentrations were analyzed by LC-MS/MS using plasma separated from the collected samples, and pharmacokinetic parameters such as the maximum observed plasma concentration (Cmax), an area under the plasma concentration-time curve (AUClast and AUCinf), a time-to-maximum observed plasma concentration (Tmax), and a half-life (T1/2) were calculated and interpreted using the WinNonlin 5.0.1 program.

[5] = beagle dog, relative to crystalline form A

Row | Weight change ([1]; relative humidity 11%) | Weight change ([1]; relative humidity 33%) | Weight change ([1]; relative humidity 54%) | Weight change ([1]; relative humidity 75%) | Weight change ([1]; relative humidity 93%) | Purity ([2]; Initial, HPLC) | Purity ([2]; Week 2, HPLC) | Purity ([2]; Week 4, HPLC) | Purity ([2]; Week 8, HPLC) | Purity ([3]; Initial, HPLC) | Purity ([3]; Week 2, HPLC) | Purity ([3]; Week 4, HPLC) | SMILES | also measured
1 | 0% | 0.5% | 0.5% | 0.5% | 0.5% | 99.1% | 98.8% | 99.1% | 99.5% | 99.8% | 99.8% | 99.8% | OC[C@H]1O[C@@H](c2cc(Cc3ccc(C4CC4)cc3)c(Cl)c3c2CCO3)[C@H](O)[C@@H](O)[C@@H]1O [Crystalline form A of enavogliflozin, enavogliflozin] | 
2 | 0% | 0.3% | 0.3% | 0.3% | 0.3% | 99.0% | 99.2% | 99.2% | 99.5% | 99.0% | 99.3% | 99.3% | OC[C@H]1O[C@@H](c2cc(Cc3ccc(C4CC4)cc3)c(Cl)c3c2CCO3)[C@H](O)[C@@H](O)[C@@H]1O [Crystalline form E of enavogliflozin, enavogliflozin] | Hygroscopicity compared to crystalline form A (in words) ([1]; relative humidity 11% to 93%): more improved hygroscopicity; PK exposure parameters AUClast and AUCinf compared to crystalline form A (in words) [4, 5]: increased; Tmax reduction compared to crystalline form A [4, 5]: ≥ 1.25 times; AUC(0-inf) ([4]; male beagle dog, plasma): 4820 ng·h/mL; AUC(0-t) ([4]; male beagle dog, plasma): 4540 ng·h/mL; Cmax ([4]; male beagle dog, plasma): 470 ng/mL; Tmax ([4]; male beagle dog, plasma): 3.2 h; half-life ([4]; male beagle dog, plasma): 5.04 h; Stress stability, purity and crystalline form (in words) ([2]; 8 weeks at 60° C.): stably maintained; Stress stability, purity and crystalline form (in words) ([3]; 4 weeks at 93% RH): stably maintained
